Columns and labels:
Assay type in all cases: cell-based
M. catarrhalis TW1 = assay: Deferred antagonism assay, producer S. salivarius K12
Experimental: 1-2 producer strain colonies were transferred from a stock plate into 900 μL of suspension solution using a fresh cotton swab. Following this, suspensions were vortexed, and a sample was inoculated onto solid culture media using a fresh cotton swab. The inoculation was a streak that runs diametrically across the agar plate in a 1.5 cm wide strip. The plate was then incubated. Following incubation all visible colonies were removed by swabbing them from the agar surface. The plates were then treated with chloroform by dispensing 2 ml of chloroform onto 4 cm×4 cm piece of cloth and sealing the inverted agar plate on top for 30 minutes. The plates were then air dried for 30 minutes following chloroforming. 1-2 indicator strain colonies were then transferred from a stock plate into complementary suspension solution. The suspensions were then vortexed, and a sample was inoculated onto the same agar surface. These samples were streaked in a perpendicular direction to the initial producer streak.
Each indicator streak was prepared with fresh a suspension containing cells from a corresponding stock plate containing the indicator strain of interest. Indicator strains suspension samples were transferred using a fresh cotton swab. Results were measured by qualitatively reviewing the subsequent (if any) sizes of the zones of inhibition (ZOI) of indicator strain colony growth. A positive result is when there is a distinctive reduction or complete inhibition of indicator colony growth on the culture medium.
CABCa agar plates containing various concentrations of saccharide were prepared according to the methods described in Method 1. Producer strains were transferred from stock agar plates into 900 μL THB using a fresh cotton swab. A plastic spread plater was cut to approximately 1.2 cm width and then dipped into ethanol and left to air dry to ensure sterility. A 100 μL sample of the producer strain suspension was then dispensed onto the agar surface in a straight line running diametrically across the agar surface in (approximately) 20 μL spots. The spots were spaced approximately 1.5 cm apart from each other. The plastic spreader was then used to evenly distribute the spots across the agar surface in a 1.5 cm wide strip. This step was taken to ensure an even producer streak was inoculated onto the agar surface and provided an approximate measure of the initial inoculum concentration. Separate plastic spreaders were used for samples containing different producer strains. The samples were left to soak into the agar surface until there was no visible liquid remaining on the agar surface (approximately 20 minutes). Following producer streak preparations, the deferred antagonism assay protocol was followed as per Method 2. Results were recorded by measuring the size of the zone of inhibition (ZOI) in mm.
A dose response assay was carried out according to method 3 above, except a 1.2 cm streak was used. For the individual saccharide testing the pH of the producer streak was adjusted after the growth of producer to change the acidic conditions.

[1] = system: bacterial indicator strains; assay: Split plate inhibitory activity of K12 in infant formula or whole milk powder (overall); settings: galactose 0.5% w/w or raffinose 2.5% w/w added
Experimental: The following method was used to measure the inhibitory effect of S. salivarius K12 in the context of the powder formulations. Exactly 40 mL of 50° C. molten CAB agar containing 0.5% calcium carbonate (CABCa) was poured in agar plates (120×120 mm). Once the agar was set upon cooling, it was split in the middle and half of the agar gel was removed. The other half was left on the plate as Blank agar marked as side “A”. Approximately, 0.8 g of each combination (DDJ powder with (1) galactose, (2) raffinose or (3) combination of raffinose and galactose) was mixed with 1 mL of sterile distilled water and vortexed to produce a homogeneous suspension. 100 μl of the suspension was reserved for spreading on the surface of agar (producer side B). The remaining suspension was then mixed with 20 mL of molten CABCa agar and the mixture was poured into the empty half of the agar plate to form producer side “B”. The 100 μL of the reserved suspension was spread over the surface on side B and the plates were incubated for 18 h, 37° C., 5% CO2 in air. […] The pH of the producer side was measured and adjusted to 6.5-7.5 by soaking into the agar a solution of 0.5 M sodium carbonate pH 11. […] The zone of inhibition of each indicator strain was measured (in mm) using a ruler. Results were also read using a macroscope to establish presence of small colonies or complete inhibition zones. […]

[2] = system: S. pyogenes strain as well as other microorganisms; assay: Inhibitory activity of M18 grown in M17 broth with saccharides; settings: saccharide 0.83% or 2.5% w/v, vs control
[3] = system: halitosis-causing gram-negative bacteria F. nucleatum, P. gingivalis and P. intermedia; assay: Deferred antagonism assay (anaerobic), producer K12; settings: 2.5% w/w raffinose; 0.5% w/w galactose; or combination
Experimental: Method: CABCa agar plates were prepared with or without 2.5% w/w raffinose, 0.5% w/w galactose or a combination of both saccharides by the addition of 0.5% (w/v) calcium carbonate to solid CAB agar in bottles and then melted by autoclaving at 110° C. for 10 mins. Once cooled, filter sterilised solutions of the saccharides or distilled water were added and mixed and then 20 ml pipetted into petri dishes.
A deferred antagonism assay was conducted using K12 or M18 raw ingredient suspended in THB. This was spread as a 1.2 cm streak containing approximately 1-2×10^6 cfu down the middle of a CABCa control or CABCa galactose supplemented test plate. After 18 hrs growth at 37° C., 5% CO2 in air, bacterial growth was removed, and the pH of the agar in the initial streak was measured and adjusted to a pH of 6.5-7.5 using 0.5M sodium carbonate pH11 before sterilizing the agar surface using chloroform vapor. Bacterial test strains were suspended in THB and swabbed across the plates perpendicular to the initial streak and then the plates were incubated at 37° C. in an anaerobic jar containing an anaeroGen sachet for 4 days. Zones of inhibition for each test strain were then measured (mm).

For `OC[C@H]1O[C@H](OC[C@H]2O[C@H](O[C@]3(CO)O[C@H](CO)[C@@H](O)[C@@H]3O)[C@H](O)[C@@H](O)[C@@H]2O)[C@H](O)[C@@H](O)[C@H]1O` [Raffinose, D-(+) Raffinose pentahydrate], the “change in ZOI size M. catarrhalis TW1” value (M. catarrhalis TW1; 2.0% (w/v) raffinose, peak) was 13 mm, the “Zone of inhibition M. catarrhalis TW1” value (M. catarrhalis TW1; Raffinose 1.7% wt) was 0 mm and the “Zone of inhibition M. catarrhalis TW1” value (M. catarrhalis TW1; Raffinose 1.7% wt, pH adjusted) was 0 mm. For the same compound, the “Zone of inhibition M. catarrhalis TW1” value (M. catarrhalis TW1; Raffinose 2.5% wt) was 10 mm, the “Zone of inhibition M. catarrhalis TW1” value (M. catarrhalis TW1; Raffinose 2.5% wt, pH adjusted) was 0 mm and the “Zone of inhibition M. catarrhalis TW1” value (M. catarrhalis TW1; Raffinose 3.3% wt) was 0 mm. For the same compound, the “Zone of inhibition M. catarrhalis TW1” value (M. catarrhalis TW1; Raffinose 3.3% wt, pH adjusted) was 0 mm, the “Zone of inhibition M. catarrhalis TW1” value (M. catarrhalis TW1; Raffinose 5% wt) was 5 mm and the “Zone of inhibition M. catarrhalis TW1” value (M. catarrhalis TW1; Raffinose 5% wt, pH adjusted) was 0 mm. For the same compound, the “Zone of inhibition M. catarrhalis TW1” value (M. catarrhalis TW1; Raffinose 10% wt) was 6 mm, the “Zone of inhibition M. catarrhalis TW1” value (M. catarrhalis TW1; Raffinose 10% wt, pH adjusted) was 0 mm and the “inhibitory activity of K12 in infant formula compared to the control” value [1] was “reduction in inhibitory activity”. The “inhibitory activity of M18 grown in presence of saccharide” value [2] was “greater inhibitory activity” and the “antimicrobial activity of K12 against halitosis-causing gram-negative bacteria” value [3] was “inhibit a variety of strains”.
For `O=C[C@H](O)[C@@H](O)[C@@H](O)[C@H](O)CO` [Galactose, D-galactose], the “change in TW1 ZOI size” value (M. catarrhalis TW1; 1.5% galactose (w/v), peak) was 12 mm, the “inhibitory activity of K12 in infant formula compared to the control” value [1] was “reduction in inhibitory activity” and the “inhibitory activity of M18 grown in presence of saccharide” value [2] was “greater inhibitory activity”. The “antimicrobial activity of K12 against halitosis-causing gram-negative bacteria” value [3] was “did not induce antimicrobial activity”.
